# According to patent USRE38132E1, “Phenylpyrrolidines, phenylimidazolidines,3-phenyl-1,3-oxizolidines and 3-phenyl-1,3-thiazolidines and their use in the treatment of inflammatory disease” (Boehringer Ingelheim Pharmaceuticals, Inc., priority 1997, dated 2003):
# Key:
# [1] = system: LFA-1 dependent aggregation of JY cells; test: JY cell homotypic aggregation assay (PMA-stimulated); format: cell-based, human; settings: Homo sapiens
# Procedure, shortened: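 JY cells (2·10^5 cells/well) in RPMI 1640 with 10% FCS incubated with test compound and […]; cells settle spontaneously and aggregation is scored at various time points. Values are concentrations (μM) giving 50% inhibition of binding.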
# [2] = system: cell bound form of LFA-1 (CD18, CD11a) with ICAM-1, SKW3 cells; test: Inhibition of SKW3 cell binding to ICAM-1 (PMA-stimulated); format: cell-based, human; settings: Homo sapiens, SKW3, values marked c: no inhibition observed up to highest dose; read-out: Assay to Detect SKW3 Cells Binding to ICAM IC50
# Procedure, shortened: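 Plates coated with sICAM-1 (40 μg/mL) or fibronectin (100 μg/mL) for 1 h; SKW3 cells in RPMI/15% FBS activated with PMA (50 μg/mL final) added with compound, 2 h at 37° C. Unbound cells washed off; value is concentration (μM) giving 50% binding inhibition.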
# [3] = system: allogeneic cell transplant response, popliteal lymph node; test: In vivo allogeneic cell transplant model (popliteal lymph node weight); settings: Mus musculus, po; mice, per os, dose at which 50% inhibition is observed; read-out: Allogeneic Cell Transplantation Assay ACT ED50
# Excerpt: In vivo: Allogeneic Cell Transplant Model Purpose of Assay: The ability of cells to recognize other cells from self or from another genetically different individual (non-self) is an important property in maintaining the integrity of tissue and organ structure. The allogeneic cell transplant response is an important model for studies of transplant rejection and immunocompetence. This T-cell-mediated immune response can be induced in adult mice by the injection of lymphocytes from a histoincompatible mouse strain into the footpad . This response is characterized by T-cell proliferation which is limited to the popliteal lymph node that receives drainage from the injected footpad area. No in vitro system can completely duplicate this in vivo response. Thus, this animal model can be used to assess the ability of a test compound to suppress transplant rejection. Description of Assay Protocol: Experiments are conducted using male or female mice (20-26 grams). Any histoincompatible mouse strains suffice for donor and recipient populations. Typically DBA mice are used as donors and […] mice are used as recipients. A minimum of 1 week stabilization and conditioning period is required before use during which time the animals are maintained in accordance with the Animal Resource Center S.O.P. Each study utilizes 36 recipient mice divided into groups of 6. The tests last approximately four days. Donor mice are sacrificed by CO2 asphyxiation and spleens are removed and made into a cell suspension. The cells (1.0·10^7/metatarsal in 0.05 mL) are injected intra dermal (according to standard protocol) into the dorsal metatarsal skin of recipient mice. Four days later, the animals are sacrificed by CO2 asphyxiation and the popliteal nodes are removed and weighed. Groups of mice receiving putative immunosuppressive agents are dosed subcutaneously, intraperitoneally or orally one hour prior to cell injection and daily thereafter according to standard protocol. Student's T-test was used to determine significant differences between popliteal lymph nodes of groups of untreated mice and those mice treated with putative immunosuppressive agents (see: Kroczek, R. A.; Black, C. D. V.; Barbet, […]. Immunology, 1987, 139, 3597). Data are reported as the dose at which 50% inhibition is observed and the manner in which the compound was administered. In Table 23, the following legends are applicable: ^and=not determined. ^bpercent inhibition at 160 μg/mL. ^cno inhibition observed up to highest dose. Exact quantification not always possible due to intrinsic toxicity of compound (see MTT result). ^[…] inhibition (concentration in μM ). ^eapproximated from incomplete dose-response curve. ^fnot determined; compound is a synthesis intermediate.
Compound,IC50 [1],IC50 [2],ED50 [3]
C[C@]1(Cc2ccc(Br)cc2)NC(=O)N(c2cc(Cl)cc(Cl)c2)C1=O [Example 29],0.1 µM,8 µM,~60 mg/kg
CC(=O)N1C(=O)N(c2cc(Cl)cc(Cl)c2)C(=O)[C@@]1(C)Cc1ccc(Br)cc1 [Example 102],1.3 µM,25 to 50 µM,~25 mg/kg
